In patent publication US20260116845A1, “LIPIDS AND COMPOSITIONS THEREOF” (Kernal Biologics, Inc., priority 2023, published 2026):

Key:
[1] = system: MC38.K Cell Line; assay: Transfection of MC38.K Cell Line with FLuc mRNA LNPs (ONE-Glo EX luciferase signal); format: cell-based; settings: 200 ng Fluc mRNA-LNP, 24 hours; Table 4
Protocol: (§1) mRNA encapsulated lipid nanoparticles (mRNA LNPs) were formulated using microfluidic mixing with a PNI Ignite instrument. Briefly, lipids (ionizable: structural: helper: PEG) were dissolved in ethanol and mixed with and aqueous solution of mRNA. These mRNA-loaded dispersions were then neutralized via a buffer exchange with a pre-determined buffer overnight. Afterwards, formed LNPs were concentrated with Amicon filter centrifugation, filtered, concentration of mRNA determined through a ribogreen assay, and frozen at −80° C. until use.
(§2) Cell lines were grown to confluence in T75 flasks using complete media of DMEM-F12 for AML12 and DMEM for both B16F10 and MC38.K. Cells were plated in a white 96 flat-well plate (AML12=20,000 cells/well, B16F10 and MC38.K=5,000 cells/well) with their respected media. Lipid nanoparticles were first diluted to 50 μg/ml using Opti-MEM and pre-incubated with mouse serum for 30 minutes to give an LNP concentration of 8 μg/ml. Cell media was replaced with Opti-MEM and LNPs were added to cells (200 ng of mRNA-LNP), placed back in the incubator, and allowed to transfect for 24 hours. Afterwards, 100 μl of Promega's ONE-Glo™ EX Luciferase Assay System or Promega's CellTiter-Glo® Luminescent Cell Viability Assay was added and mixed in their respective wells, followed by recording luminescence signals on a Thermo Scientific Varioskan LUX multimode microplate reader. The results are shown in FIG. 1, FIG. 2, FIG. 3, FIG. 4, FIG. 5, FIG. 6, FIG. 10, FIG. 11, and FIG. 21.

[2] = system: B16F10 Cell Line; assay: Transfection of B16F10 Cell Line with FLuc mRNA LNPs (ONE-Glo EX luciferase signal); format: cell-based; settings: 200 ng Fluc mRNA-LNP, 24 hours; Table 4
Protocol: as §1, §2

[3] = system: Liver; assay: Ex-vivo luminescence signal from liver after IV Fluc mRNA LNPs in CD1 mice (IVIS); settings: tail vein 1.0 mg/kg Day 0 and Day 2, imaging 18 hours after second dose, Table 4
[4] = system: AML12 Cell Line; assay: Transfection of AML12 Cell Line with FLuc mRNA LNPs (ONE-Glo EX luciferase signal); format: cell-based; settings: 200 ng Fluc mRNA-LNP, 24 hours; Table 4
Protocol: as §1, §2

SMILES | Total Luciferin Signal (RLU) In Vitro - MC38.K [1] [RLU] | Total Luciferin Signal (RLU) In Vitro - B16F10 [2] [RLU] | Total Liver Tissue Luciferin Signal (Photons/s) Ex-vivo - CD1 [3] [Photons/s] | Total Luciferin Signal (RLU) In Vitro - AML12 [4] [RLU]
CCCCCCCCC(CCCCCCCC)C(=O)OCCCCCCCN(CCCCCC(=O)OCCCCCCCCC(C)C)CCOC(=O)CCCN(C)C [Compound 9] | 1.23E+06 | 3.27E+06 | 4.41E+07 | 6.57E+05
CCCCCCCCCOC(=O)CCCCCN(CCO)CCCCCCCC(=O)OC(CCCCCCCC)CCCCCCCF (centres unmarked) [Compound 25] | 9.18E+05 | 4.43E+05 | 2.05E+09 | 1.09E+05
CCCCCCCCC(CCCCCCCC)C(=O)OCCCCCCCN(CCO)CCCCCCCOC(=O)CCCCCCCC=C(C)C [Compound 20] | 7.88E+05 | 4.65E+05 | 7.61E+09 | 7.65E+05
CCCCCCCCC(CCCCCCCF)OC(=O)CCCCCCCN(CCO)CCCCCC(=O)OCCCCCCC(C)C (centres unmarked) [Compound 26] | 2.33E+05 | 1.73E+05 | 5.54E+09 | 1.95E+05
CCCCCCCCC(CCCCCCCC)OC(=O)CCCCCN(CCO)CCCCCC(=O)OCCCCCCCCCCC(C)C [Compound 16] | 2.39E+06 | 7.67E+06 | 5.11E+09 | 1.67E+06
CCCCCCCCCOC(=O)CCCCCCCN(CCO)CCCCCCC(C)C(=O)OC(CCCCCCCC)CCCCCCCC (centres unmarked) [Compound 36] | 2.32E+05 | 2.85E+05 | 6.41E+08 | 2.18E+05
CCCCCCCCC(CCCCCCCC)OC(=O)CCCCCCCN(CCO)CCCCCCC(C)C(=O)OCCCCCCCCC(C)C (centres unmarked) [Compound 59, 9-methyldecyl 8-((8-(heptadecan-9-yloxy)-8-oxooctyl)(2-hydroxyethyl)amino)-2-methyloctanoate] | 8.40E+06 | 6.17E+05 | 5.55E+09 | 8.24E+05
[2H]C([2H])(OC(=O)CCCN(C)C)C([2H])([2H])N(CCCCCCCC(=O)OCCCCCCCCC)CCCCCCCC(=O)OC(CCCCCCCC)CCCCCCCC [Compound 40, heptadecan-9-yl 8-((2-((4-(dimethylamino)butanoyl)oxy)ethyl-1,1,2,2-d4)(8-(nonyloxy)-8-oxooctyl)amino)octanoate] | 8.09E+06 | 3.61E+06 | 1.12E+08 | 4.13E+06
CCCCCCCCCCCOC(=O)CCCCCN(CCCCCCCC(=O)OC(CCCCCCCC)CCCCCC(C)C)CCOC(=O)CCCN(C)C (centres unmarked) [Compound 19] | 1.90E+06 | 1.27E+06 | 1.28E+08 | 6.91E+05
CCCCCCCCC(CCCCCCCF)OC(=O)CCCCCCCN(CCO)CCCCCC(=O)OC(CCCCCCCC)CCCCCC(C)C (centres unmarked) [Compound 55, 1-fluorohexadecan-8-yl 8-((2-hydroxyethyl)(6-((2-methylhexadecan-8-yl)oxy)-6-oxohexyl)amino)octanoate] | 1.80E+06 | 1.10E+06 | 1.93E+10 | 4.19E+05
CCCCCCCCC(CCCCCCCC)OC(=O)CCCCCCCN(CCO)CCCCCC(=O)OCCCCCCCCC(C)C [Compound 1] | 7.83E+06 | 6.92E+06 | 9.00E+09 | 1.96E+06
CCCCCCCCC(CCCCCCCCF)OC(=O)CCCCCCCN(CCO)CCCCCCCC(=O)OCCCCCCCCC(C)C (centres unmarked) [Compound 10] | 6.38E+05 | 4.57E+05 | 8.34E+09 | 7.51E+05
CCCCCCCCCCCOC(=O)CCCCCN(CCO)CCCCCCCC(=O)OC(CCCCCCCC)CCCCCCCF (centres unmarked) [Compound 24] | 7.60E+05 | 3.37E+05 | 1.04E+10 | 5.98E+05
CCCCCCCCC(CCCCCCCCF)OC(=O)CCCCCCCN(CCO)CCCCCC(=O)OC(CCCCCCCC)CCCCCCCC (centres unmarked) [Compound 35] | 4.52E+05 | 4.43E+05 | 1.51E+10 | 1.57E+05
CCCCCCCCCC(=O)OCCCCCCCN(CCO)CCCCCCCOC(=O)C(CCCCCCCC)CCCCCCCF (centres unmarked) [Compound 27] | 2.37E+05 | 6.19E+04 | 5.60E+09 | 3.02E+05
CCCCCCCCC(CCCCCCCCF)C(=O)OCCCCCCCN(CCCCO)CCCCCCCOC(=O)CCCCCCCCC(C)C (centres unmarked) [Compound 69, 7-((7-((10-fluoro-2-octyldecanoyl)oxy)heptyl)(4-hydroxybutyl)amino)heptyl 10-methylundecanoate] | 4.67E+07 | 3.62E+06 | 4.64E+09 | 8.05E+06
CCCCCCCCCOC(=O)CCCCCCCN(CCCCO)CCCCCCCC(=O)OCC(CCCCCC)CCCCCCCCF (centres unmarked) [Compound 71, 10-fluoro-2-hexyldecyl 8-((4-hydroxybutyl)(8-(nonyloxy)-8-oxooctyl)amino)octanoate] | 1.57E+07 | 1.67E+06 | 1.75E+09 | 4.77E+06
CCCCCCCCC(CCCCCCCC)OC(=O)CCCCCCCN(CCO)CCCCCCCOC(=O)CCCCCCCCC(C)C [Compound 11] | 7.64E+06 | 7.92E+06 | 4.88E+09 | 4.29E+06
CC(C)CCCCCCCCOC(=O)CCCCCCCN(CCO)CCCCCCCC(=O)OCCCCCCCCC(C)C [Compound 45] | 1.09E+06 | 1.98E+06 | 4.18E+08 | 3.98E+05
CCCCCCCCC(CCCCCCCC)C(=O)OCCCCCCCN(CCCCCC(=O)OCCCCCCCCC(C)C)CCOC(=O)CCCN(C)CCO [Compound 8] | 3.40E+06 | 9.69E+05 | 2.13E+08 | 1.43E+05
CCCCCCCCCOC(=O)CCCCCCCN(CCCCCCCC(=O)OC(CCCCCCCC)CCCCCCCCF)CCN(C)C (centres unmarked) [Compound 56, 1-fluoroheptadecan-9-yl 8-((2-(dimethylamino)ethyl)(8-(nonyloxy)-8-oxooctyl)amino)octanoate] | 2.52E+07 | 1.54E+07 | 1.77E+09 | 6.63E+06
CCCCCCCCC(CCCCCCCC)C(=O)OCCCCCCCN(CCO)CCCCCCCOC(=O)CCCCCCCCC(C)C [Compound 14] | 4.71E+06 | 5.12E+06 | 1.93E+09 | 2.94E+06
CCCCCCCCC(CCCCCCCC)C(=O)OCCCCCCCN(CCO)CCCCCC(=O)OCCCCCCCCC(C)C [Compound 6] | 9.66E+05 | 5.77E+05 | 2.10E+09 | 8.42E+05
